Patent US6774143B1, “Method for treating cells resistant to antineoplastic agents” (Novartis AG, priority 2003, dated 2004)
pIC50: −log10 of the molar value. Like-named read-outs stand apart in the source and are kept apart here.

How the values were obtained:
HCT-15 colon cells = assay: Antiproliferative assay, methylene blue staining; type: cell-based; settings: Homo sapiens, read-out: IC50 antiproliferative activity
From the text: The following cell lines are obtained from the American Type Culture Collection (ATCC, Rockville, Md., USA): human colon carcinomas HCT-15 (CCL 225) and HCT-116 (CCL 247), human lung adenocarcinoma A549 (CCL 185), human large cell carcinoma NCI-H460 (HTB 177), estrogen-independent breast carcinoma MDA-MB-231 ([…]), prostate cancer cell line Du 145 (HTB 81). The human KB-31 (drug-sensitive) and KB-8511 (multidrug-resistant, Pgp170 overexpressing) epidermoid carcinoma cells are obtained from Dr. R. M. Baker, Roswell Park Memorial Institute (Buffalo, N.Y., USA) and have been previously described (Akiyam S, et al. Somatic Cell Molec Genetics 1985;11:117-126 and Fojo A, et al., Cancer Res. […];45:3002-3007). The human metastatic prostate carcinoma PC-3M is obtained from Dr. I. J. Fidler (MD Anderson Cancer Center, Houston, Tex., USA). The estrogen-dependent human breast carcinoma cell line MCF-7/ADR (multidrug resistant) is a subline of the MCF-7 cell line (ATCC HTB 22) and is obtained from Dr. D. Fabbro (Novartis Pharma AG, Basel, Switzerland) and has been previously described (Blobe G C, et al. J. Biol. Chem. 1993; 268:658-664).
For the antiproliferative assays, cells are seeded at 1.5×10^3/well into 96-well microtiter plates and incubated overnight. Compounds are added in serial dilutions on day 1. The plates are than incubated for additional 5 days. This allowed the control cultures to undergo at least 3 cell divisions. After incubation the cells are fixed with 3.3% v/v glutaraldehyde, washed with water and stained with 0.05% w/v methylene blue. After washing, the dye is eluted with 3% v/v HCl and the optical density measured at 665 nm with a SpectraMax 340 (Bucherer, Basel, Switzerland). IC50 values are determined by a computerized system (SoftPro, Bucherer, Basel, Switzerland) using the formula (OD test—OD start)/(OD control—OD start)×100. IC50 is defined as the drug concentration which leads to 50% of cells per well compared to control cultures (100%) at the end of the incubation period.

1A9 cells = assay: Antiproliferative assay (MTS); type: cell-based; settings: Homo sapiens, 1A9, 72 h, single value given
Protocol: A549, a human non-small cell lung carcinoma and MDA-MB-435, a human breast carcinoma, used in this study are obtained from the American Type Culture Collection (ATCC, Rockville, Md., USA). MDA-MB-435 cells are maintained in MEM containing 10% FBS, 1% sodium pyruvate, 1% MEM non-essential amino acids, and 15 mM HEPES (pH=7.4). A549 cells are maintained in RPMI 1640 containing 10% FBS. 1A9, a single-cell clone of the human ovarian carcinoma cell line A2780 and PTX22, the paclitaxel-resistant subline, used in this stdy are obtained from M. Wartman (Novartis Pharmauticals). 1A9 cells and PTX22 cells are maintained in RPMI 1640 supplemented with 10% FBS. PTX22 maintenance media also contained 15 ng/mL paclitaxel and 5 μg/mL verapamil. Drug is removed from the media for 5-7 days before use in an experiment. […]
Cell lines are trypsinized and counted using a Coulter counter. […] Initial cell density for each cell line is measured on day 1 by adding 10 μL MTS mixture (see below), incubating for 4 h and recording absorbance at 490 nm (A490). Two or three days after test compound addition, 10 μL/well of MTS mixture is added to the test plates and A490 was read 4 h later. A490 values for wells containing cells are corrected for media absorbance, then normalized to initial density readings to determine percent net growth. Percent net growth is calculated as (A490+drug−A490 initial)/(A490—drug—A490 initial). […]

| pIC50 (HCT-15 colon cells; 120 h, HCT-15 colon cells, 5 days incubation) | SMILES | pIC50 (1A9 cells; 1A9 cells, read-out: 72 hour IC50) | pIC50 (HCT-15 colon cells; HCT-15, 120 h) | pIC50 (1A9 cells; read-out: 72 hour IC50, 1A9 cells) |
| --- | --- | --- | --- | --- |
| ~6.92 | CC(=O)O[C@H]1C(=O)[C@@]2(C)[C@H]([C@H](OC(=O)c3ccccc3)[C@]3(O)C[C@H](OC(=O)[C@H](O)[C@@H](NC(=O)c4ccccc4)c4ccccc4)C(C)=C1C3(C)C)[C@]1(OC(C)=O)CO[C@@H]1C[C@@H]2O [paclitaxel, reference compound] | 8.22 |  |  |
|  | C=C/C=C\[C@H](C)[C@H](OC(N)=O)[C@@H](C)[C@H](O)[C@@H](C)C/C(C)=C\[C@H](C)[C@@H](O)[C@@H](C)/C=C\[C@@H](O)C[C@@H]1OC(=O)[C@H](C)[C@@H](O)[C@H]1C [discodermolide, (+)-Discodermolide] |  | ~8.10 | 7.60 |
